# Measured values published in patent publication US10995101B2, “2-oxo-thiazole derivatives as A2A inhibitors and compounds for use in the treatment of cancers” (iTeos Therapeutics SA, priority 2017, dated 2021).
# Assays:
# in vitro = conditions: human, Caco-2, pH 7.4
# A2A receptor = A2A receptor (Homo sapiens, UniProt P29274); experiment: Inhibition of cAMP production in HEK cells; format: cell-based; conditions: HEK-293 cells with A2A receptor
# Experimental: When the A2A receptor is activated, is induces the production of cAMP.
# HEK-293 cells with a stable transfection of A2A receptor were bought from PerkinElmer® (# ES-011-C). […] Fresh media without the selection marker was added on the day immediately before the experiment to stop selection pressure.
# Stimulation buffer b) mimics the human situation by increasing the amount of albumin present in the assay.
# Compounds of the present invention were diluted 100× in either of the buffers depending on the assay performed. […] The total volume of the reaction was 20 μl (10 μl of cells, 5 μl of antagonist and 5 μl of agonist). The reaction was finalized by adding 10 μl of 4× EU-cAMP tracer working solution and 10 μl of 4× ULight-anti-cAMP working solution. The TR-FRET signal was measured after 1 hour using a Spectramax Paradigm (Molecular Devices).
# [1] = IC50 (nM) (3 nM NECA as agonist, 0.1% BSA), 3 nM NECA as agonist, 0.1% BSA
# [2] = IC50 (nM) (5 μM Adenosine as agonist, 2.0% HSA), 5 μM Adenosine as agonist, 2.0% HSA
# [3] = IC50 (nM) (5 nM NECA as agonist, 2% HSA), 5 nM NECA as agonist, 2% HSA
# Sequence of A2A receptor (P29274 whole entry): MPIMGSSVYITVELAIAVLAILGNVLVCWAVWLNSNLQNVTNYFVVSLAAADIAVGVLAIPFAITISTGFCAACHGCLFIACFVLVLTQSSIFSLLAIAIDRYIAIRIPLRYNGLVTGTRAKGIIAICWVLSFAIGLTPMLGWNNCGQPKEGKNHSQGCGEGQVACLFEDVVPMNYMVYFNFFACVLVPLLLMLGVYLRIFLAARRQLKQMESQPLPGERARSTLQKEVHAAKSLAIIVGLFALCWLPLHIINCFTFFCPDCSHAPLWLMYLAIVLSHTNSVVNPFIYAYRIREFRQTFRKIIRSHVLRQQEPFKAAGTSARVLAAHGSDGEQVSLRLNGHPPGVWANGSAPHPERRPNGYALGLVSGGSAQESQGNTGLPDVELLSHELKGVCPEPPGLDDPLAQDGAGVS
Structure (SMILES),"efflux ratio at 120 min, 2 μM (in vitro)",IC50 (A2A receptor; [1]),IC50 (A2A receptor; [2]),IC50 (A2A receptor; [3])
"CC(C)(O)c1ccc(N2CCN(CCn3c(=O)sc4c3nc(N)n3nc(-c5ccco5)nc43)CC2)c(F)c1 [Compound 86, 5-amino-3-(2-(4-(2-fluoro-4-(2-hydroxypropan-2-yl)phenyl)piperazin-1-yl)ethyl)-8-(furan-2-yl)thiazolo[5,4-e][1,2,4]triazolo[1,5-c]pyrimidin-2(3H)-one]",5,0.6 nM,747 nM,–
"Nc1nc2c(sc(=O)n2CCN2CCN(c3cc(O[C@H]4CC[S@+]([O-])CC4)c(F)cc3F)CC2)c2nc(-c3ccco3)nn12 [Compound 112, 5-amino-3-(2-(4-(2,4-difluoro-5-(((1r,4r)-1-oxidotetrahydro-2H-thiopyran-4-yl)oxy)phenyl)piperazin-1-yl)ethyl)-8-(furan-2-yl)thiazolo[5,4-e][1,2,4]triazolo[1,5-c]pyrimidin-2(3H)-one]",605,0.8 nM,53 nM,–
"CN(C)CCNC(=O)COc1cc(N2CCN(CCn3c(=O)sc4c3nc(N)n3nc(-c5ccco5)nc43)CC2)c(F)cc1F [Compound 63, 2-(5-(4-(2-(5-amino-8-(furan-2-yl)-2-oxothiazolo[5,4-e][1,2,4]triazolo[1,5-c]pyrimidin-3(2H)-yl)ethyl)piperazin-1-yl)-2,4-difluorophenoxy)-N-(2-(dimethylamino)ethyl)acetamide]",264,0.3 nM,12 nM,1 nM
"Nc1nc2c(sc(=O)n2CCN2CCN(c3ccc(OCC4COCCN4)cc3F)CC2)c2nc(-c3ccco3)nn12 (centres unmarked) [Compound 99, 5-amino-3-(2-(4-(2-fluoro-4-(morpholin-3-ylmethoxy)phenyl)piperazin-1-yl)ethyl)-8-(furan-2-yl)thiazolo[5,4-e][1,2,4]triazolo[1,5-c]pyrimidin-2(3H)-one]",13,0.5 nM,64 nM,–
"CC(C)(O)COc1ccc(N2CCN(CCn3c(=O)sc4c3nc(N)n3nc(-c5ccco5)nc43)CC2)c(F)c1 [Compound 85, 5-amino-3-(2-(4-(2-fluoro-4-(2-hydroxy-2-methylpropoxy)phenyl)piperazin-1-yl)ethyl)-8-(furan-2-yl)thiazolo[5,4-e][1,2,4]triazolo[1,5-c]pyrimidin-2(3H)-one]",5,0.4 nM,220 nM,–
"Nc1nc2c(sc(=O)n2CCN2CCN(c3cc(O[C@H]4CCNC4=O)c(F)cc3F)CC2)c2nc(-c3ccco3)nn12 [Compound 95, (S)-5-amino-3-(2-(4-(2,4-difluoro-5-((2-oxopyrrolidin-3-yl)oxy)phenyl)piperazin-1-yl)ethyl)-8-(furan-2-yl)thiazolo[5,4-e][1,2,4]triazolo[1,5-c]pyrimidin-2(3H)-one]",137,0.7 nM,37 nM,–
"Nc1nc2c(sc(=O)n2CCN2CCN(c3ccc(OCC(=O)O)cc3)CC2)c2nc(-c3ccco3)nn12 [Compound 10, 2-(4-(4-(2-(5-amino-8-(furan-2-yl)-2-oxothiazolo[5,4-e][1,2,4]triazolo[1,5-c]pyrimidin-3(2H)-yl)ethyl)piperazin-1-yl)phenoxy)acetic acid]",24,2.3 nM,607 nM,14 nM
"Nc1nc2c(sc(=O)n2CCN2CCN(c3ccc(C(=O)NCC4COCCN4)cc3F)CC2)c2nc(-c3ccco3)nn12 (centres unmarked) [Compound 107, 4-(4-(2-(5-amino-8-(furan-2-yl)-2-oxothiazolo[5,4-e][1,2,4]triazolo[1,5-c]pyrimidin-3(2H)-yl)ethyl)piperazin-1-yl)-3-fluoro-N-(morpholin-3-ylmethyl)benzamide]",680,0.1 nM,35 nM,–
"C[S@+]([O-])CCOc1ccc(N2CCN(CCn3c(=O)sc4c3nc(N)n3nc(-c5ccco5)nc43)CC2)c(F)c1 (single isomer, unassigned) [Compound 5]",67,0.4 nM,241 nM,8 nM
"C[S@@+]([O-])CCNC(=O)c1ccc(N2CCN(CCn3c(=O)sc4c3nc(N)n3nc(-c5ccco5)nc43)CC2)c(F)c1 [Compound 124, (R)-4-(4-(2-(5-amino-8-(furan-2-yl)-2-oxothiazolo[5,4-e][1,2,4]triazolo[1,5-c]pyrimidin-3(2H)-yl)ethyl)piperazin-1-yl)-3-fluoro-N-(2-(methylsulfinyl)ethyl)benzamide]",54,2.3 nM,2040 nM,–
"Nc1nc2c(sc(=O)n2CCN2CCN(c3ccc(OC4CCNCC4)cc3F)CC2)c2nc(-c3ccco3)nn12 [Compound 47, 5-amino-3-(2-(4-(2-fluoro-4-(piperidin-4-yloxy)phenyl)piperazin-1-yl)ethyl)-8-(furan-2-yl)thiazolo[5,4-e][1,2,4]triazolo[1,5-c]pyrimidin-2(3H)-one]",329,1.8 nM,43 nM,1 nM
"CN(C)CCNC(=O)COc1ccc(N2CCN(CCn3c(=O)sc4c3nc(N)n3nc(-c5ccco5)nc43)CC2)c(F)c1 [Compound 51, 2-(4-(4-(2-(5-amino-8-(furan-2-yl)-2-oxothiazolo[5,4-e][1,2,4]triazolo[1,5-c]pyrimidin-3(2H)-yl)ethyl)piperazin-1-yl)-3-fluorophenoxy)-N-(2-(dimethylamino)ethyl)acetamide]",469,0.3 nM,16 nM,–
"Nc1nc2c(sc(=O)n2CCN2CCN(c3ccc(O[C@@H]4CNC[C@@H]4F)cc3F)CC2)c2nc(-c3ccco3)nn12 [Compound 103, 5-amino-3-(2-(4-(2-fluoro-4-(((3R,4S)-4-fluoropyrrolidin-3-yl)oxy)phenyl)piperazin-1-yl)ethyl)-8-(furan-2-yl)thiazolo[5,4-e][1,2,4]triazolo[1,5-c]pyrimidin-2(3H)-one]",20,1.1 nM,–,–
"CNCCN(C)C(=O)c1ccc(N2CCN(CCn3c(=O)sc4c3nc(N)n3nc(-c5ccco5)nc43)CC2)c(F)c1 [Compound 55, 4-(4-(2-(5-amino-8-(furan-2-yl)-2-oxothiazolo[5,4-e][1,2,4]triazolo[1,5-c]pyrimidin-3(2H)-yl)ethyl)piperazin-1-yl)-3-fluoro-N-methyl-N-(2-(methylamino)ethyl)benzamide]",205,1 nM,141 nM,2 nM
"Nc1nc2c(sc(=O)n2CCN2CCN(c3ccc(CCC(=O)O)cc3F)CC2)c2nc(-c3ccco3)nn12 [Compound 40, 3-(4-(4-(2-(5-amino-8-(furan-2-yl)-2-oxothiazolo[5,4-e][1,2,4]triazolo[1,5-c]pyrimidin-3(2H)-yl)ethyl)piperazin-1-yl)-3-fluorophenyl)propanoic acid]",25,0.7 nM,261 nM,7 nM
"Nc1nc2c(sc(=O)n2CCN2CCN(c3cc(C(=O)NCC4COCCN4)c(F)cc3F)CC2)c2nc(-c3ccco3)nn12 (centres unmarked) [Compound 98, 5-(4-(2-(5-amino-8-(furan-2-yl)-2-oxothiazolo[5,4-e][1,2,4]triazolo[1,5-c]pyrimidin-3(2H)-yl)ethyl)piperazin-1-yl)-2,4-difluoro-N-(morpholin-3-ylmethyl)benzamide]",53,0.1 nM,7 nM,–
"Nc1nc2c(sc(=O)n2CCN2CCN(c3ccc(OC4CCNC4)cc3F)CC2)c2nc(-c3ccco3)nn12 (centres unmarked) [Compound 48, 5-amino-3-(2-(4-(2-fluoro-4-(pyrrolidin-3-yloxy)phenyl)piperazin-1-yl)ethyl)-8-(furan-2-yl)thiazolo[5,4-e][1,2,4]triazolo[1,5-c]pyrimidin-2(3H)-one]",166,0.1 nM,9 nM,–
"Nc1nc2c(sc(=O)n2CCN2CCN(c3ccc(O[C@H]4CNC[C@H]4F)cc3F)CC2)c2nc(-c3ccco3)nn12 [Compound 104, 5-amino-3-(2-(4-(2-fluoro-4-(((3S,4R)-4-fluoropyrrolidin-3-yl)oxy)phenyl)piperazin-1-yl)ethyl)-8-(furan-2-yl)thiazolo[5,4-e][1,2,4]triazolo[1,5-c]pyrimidin-2(3H)-one]",20,0.5 nM,45 nM,–
"Nc1nc2c(sc(=O)n2CCN2CCN(c3cc(O[C@@H]4CNC[C@H]4F)c(F)cc3F)CC2)c2nc(-c3ccco3)nn12 (stereo in doubt) [Compound 91, 5-amino-3-(2-(4-(2,4-difluoro-5-(((3R,4R)-4-fluoropyrrolidin-3-yl)oxy)phenyl)piperazin-1-yl)ethyl)-8-(furan-2-yl)thiazolo[5,4-e][1,2,4]triazolo[1,5-c]pyrimidin-2(3H)-one]",195,0.8 nM,168 nM,–
"Cc1cc(N2CCN(CCn3c(=O)sc4c3nc(N)n3nc(-c5ccco5)nc43)CC2)c(F)cn1 [Compound 82, 5-amino-3-(2-(4-(5-fluoro-2-methylpyridin-4-yl)piperazin-1-yl)ethyl)-8-(furan-2-yl)thiazolo[5,4-e][1,2,4]triazolo[1,5-c]pyrimidin-2(3H)-one]",3,0.2 nM,15 nM,–
